Here are results for 4 compounds from PMC2626250 (Toxicology and applied pharmacology, 2008).

The test system of one series is mouse liver microsomes. In words: Effect of inhibitors on S-oxidation of ETA by mouse liver microsomes. The settings on record: 200 μM ETA. Type of series: in vitro ADME. In general terms: Liver microsomes are a subcellular fraction often used to study metabolism.
The subject of another series is mouse lung microsomes. In words: Effect of inhibitors on S-oxidation of ETA by mouse lung microsomes. Type of series: in vitro ADME. The settings on record: 200 μM ETA.
For another series, the system named is mFmos and hFMOs. The settings on record: 4 mM GSH added following 15 minutes of incubation; 200 μM ETA.
A further series relates to EtaA. The settings on record: pH 7.5; cited from earlier work.
The conditions of series [1]: oral administration of therapeutic doses; ref Conte et al., 2000; cited from earlier work.

`CCCC(C(=O)OCCN(CC)CC)(c1ccccc1)c1ccccc1` [SKF-525A]: the “activity remaining (appearance of ETASO)” value with mouse liver microsomes (SKF-525A 1 mM) turned out to be 82.9%; in the series on mouse lung microsomes (SKF-525A 1 mM), 102.4%.
`N[C@@H](CCC(=O)N[C@@H](CS)C(=O)NCC(=O)O)C(=O)O` [GSH, Glutathione] had an ETASO removed with mFmos and hFMOs of around 50%.
With `CCc1cc(C(N)=S)ccn1` [ETA, ethionamide], in the series with EtaA, the “specificity constant for the formation of ETASO” value is on record as 0.04. Moreover, in series [1], the “concentration of ETA in human plasma” value is “approximately 6 μM”, the “concentration of ETA in lung alveolar cells” value was around 2.4 µM and the “concentration of ETA in lung epithelial lining fluid” value is around 35 µM.
Turning to `NC(N)=S` [thiourea], the “reduction of ETA oxygenation to ETASO” value is recorded as 73.5% with mouse liver microsomes (thiourea 200 μM, average) and 76.9% in the series with mouse lung microsomes (thiourea 200 μM, average).
